Values quoted from earlier work in US20180256731A1, “NOVEL INSULIN ANALOG AND USE THEREOF” (HANMI PHARM. CO., LTD, priority 2013, published 2018).

Conditions: commercially available long-acting insulin

Substance | lasting for (duration) [h]
insulin detemir | 18 to 22
insulin glargine | 20 to 22
